From patent US20080107625A1, “Inhibitors of Hepatitis C Virus” (Bristol-Myers Squibb Company, priority 2006, published 2008)

What was measured:
[1] = molecular target: T1, human neutrophil elastase (HNE) (Homo sapiens, UniProt P08246); test: Specificity assay, neutrophil elastase; assay type: biochemical; conditions: read-out: HLE activity in the specificity assay (IC50)
T1 construct: purchased Sigma or EMDbiosciences
T1 sequence (P08246 30-267): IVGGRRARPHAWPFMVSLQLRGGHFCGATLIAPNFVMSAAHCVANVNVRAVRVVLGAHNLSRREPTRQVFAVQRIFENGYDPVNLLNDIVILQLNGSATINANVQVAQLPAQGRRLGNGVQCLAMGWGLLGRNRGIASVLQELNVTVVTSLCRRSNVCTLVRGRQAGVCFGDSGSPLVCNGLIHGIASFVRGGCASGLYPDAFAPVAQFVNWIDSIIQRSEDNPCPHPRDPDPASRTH
Experimental: (§1) The specificities of compounds of the present disclosure were determined against a variety of serine proteases: human neutrophil elastase (HNE), porcine pancreatic elastase (PPE) and human pancreatic chymotrypsin and one cysteine protease: human liver cathepsin B. In all cases, a 96-well plate format protocol using colorimetric p-nitroaniline (pNA) substrate or fluorometric Amino-Methyl-Coumarin (AMC) substrate, specific for each enzyme was used as described previously (PCT Patent Application No. WO 00/09543) with some modifications. All enzymes were purchased from Sigma or EMDbiosciences while the substrates were from Bachem.
(§2) Each pNA assay included a 2 h enzyme-inhibitor pre-incubation at room temperature followed by addition of substrate and hydrolysis to ˜15% conversion as measured on a Spectramax Pro microplate reader. The cathepsin B assay was initiated by adding substrate to a 10 min enzyme-inhibitor pre-incubation at room temperature, and the assay plate measured immediately using the Cytofluor Series 4000. Compound concentrations varied from 100 to 0.4 μM depending on their potency.
50 mM Tris(hydroxymethyl)aminomethane hydrochloride (Tris-HCl) pH 8, 0.5 M Sodium Sulfate (Na2SO4), 50 mM NaCl, 0.1 mM EDTA, 3% DMSO, 0.01% Tween-20 with: […]
(§3) The percentage of inhibition was calculated using the formula: [1−((UVinh−UVblank)/(UVctl−UVblank))]×100 […]

human liver cathepsin B = molecular target: T2, human liver cathepsin B (Homo sapiens, UniProt P07858); test: Specificity assay, cathepsin B; assay type: biochemical
T2 construct: purchased Sigma or EMDbiosciences; host or cells: human liver (as named)
Experimental: as §1
as §2, with “potency. […]” for “potency.”
as §3

CC(C)(C)OC(=O)N[C@H]1CN(C2CC2)CCC/C=C\C2C[C@@]2(C(=O)NS(=O)(=O)C2CC2)NC(=O)[C@@H]2C[C@@H](Oc3ccccn3)CN2C1=O (some centres unmarked) [Compound 1]
IC50 [1]: > 100 µM
IC50 (human liver cathepsin B): > 100 µM
